Data on 42 molecules can be found in US12421212B2, “Substituted benzenecarboxamides as IL-17A modulators” (DiCE Alpha, Inc., priority 2019, dated 2025).

This assay deals with T1, IL-17A/A (Homo sapiens, UniProt Q16552).
T1 construct: purchased Genscript Z03228
T1 sequence (Q16552 24-155): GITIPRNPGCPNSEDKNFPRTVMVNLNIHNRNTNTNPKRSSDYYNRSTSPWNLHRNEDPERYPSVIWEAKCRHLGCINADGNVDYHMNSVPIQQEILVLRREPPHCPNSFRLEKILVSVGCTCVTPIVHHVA
As to the kind of experiment: IL-17A/A HEK-Blue Cell Assay. It is filed as cell-based. The settings on record: HEK-Blue IL-17A reporter cell line, SEAP readout at A630, 20 hours incubation with IL-17A/A, top concentration 10 uM, 1 uM or 0.3 uM; for IC50: read-out: IL-17A/A inhibition (pIC50) (converted).

The structures appear in SMILES notation.

Consider `CCn1nccc1C(=O)N[C@H](C(=O)Nc1ccc([C@H](C)[C@@H](NC(=O)CC(F)(F)F)C(=O)N2CCN(C)CC2)cc1F)C1CCCCC1` [Compound 643], for which the IC50 is 100 to 10000 nM. On the same count and under the same terms, as for `CCC(=O)N[C@@H](C(=O)N1CCC(C)(O)CC1)[C@@H](C)c1ccc(NC(=O)[C@@H](NC(=O)C(F)(F)c2cncs2)[C@H]2CC[C@H](C)CC2)c(F)c1` [Compound 378], the figure is 10 to 100 nM; as for `CCn1nccc1C(=O)N[C@H](C(=O)Nc1ccc([C@H](C)[C@@H](NC(=O)c2coc(C)n2)C(=O)N2CCN(C)CC2)cc1F)C1CCCCC1` [Compound 683], 100 to 10000 nM.

Turning to `CCC(=O)N[C@H](Cc1ccc(NC(=O)[C@@H](NC(=O)C(F)(F)c2cccc(OC)c2)C2CCCCC2)c(F)c1)C(=O)N1CCN(C)CC1` [Compound 207], the IC50 is 100 to 10000 nM. Still for that read-out and setting: the same measure for `CCc1nonc1C(=O)N[C@H](C(=O)Nc1ccc([C@H](C)[C@@H](NC(=O)CC2CC2)C(=O)N2CCN(C)CC2)cc1F)[C@H]1CC[C@H](C)CC1` [Compound 492]: less than 10 nM; for `CCc1nonc1C(=O)N[C@H](C(=O)Nc1ccc([C@H](C)[C@@H](NC(=O)N(C)C)C(=O)N2CCN(C)CC2)cc1F)[C@H]1CC[C@H](C)CC1` [Compound 514]: less than 10 nM.

For `CCC(=O)N[C@H](Cc1ccc(NC(=O)[C@@H](NC(=O)c2nonc2CC)[C@H]2CC[C@H](C)CC2)c(F)c1)C(=O)N1CCN(C)[C@@H](C)C1` [Compound 462], the “IL-17A/A inhibition (pIC50)” value was “A (compounds having a pIC50 of greater than or equal 8 as A)”.

With `CCC(=O)N[C@@H](C(=O)N1CCN(C)CC1)[C@@H](C)c1ccc(NC(=O)[C@H](Cc2ccccc2Cl)NC(=O)c2ccnn2CC)c(F)c1` [Compound 742], the “IL-17A/A inhibition (pIC50)” value was “X2a (compounds were evaluated up to 1 uM and did not inhibit activity by >80%, however they showed some activity at 1 uM (less than 80% and more than 20%))”. The same measure, in the same setting: the same measure for `CCC(=O)N[C@@H](C(=O)N1CCN(C)CC1)[C@H](C)c1ccc(NC(=O)[C@@H](NC(=O)c2ccnn2CC)[C@H]2CC[C@H](C)CC2)c(F)c1` [Compound 544]: “X3a (compounds were evaluated up to 0.3 uM and did not inhibit activity by >80%, however they showed some activity at 0.3 uM (less than 80% and more than 20%))”. For `CC(C)n1nccc1C(=O)N[C@H](C(=O)Nc1ccc([C@H](C)[C@@H](NC(=O)NC2CC2)C(=O)N2CCNCC2)cc1F)C1CCCCC1` [Compound 315], the “IL-17A/A inhibition (pIC50)” value is “A (compounds having a pIC50 of greater than or equal 8 as A)”. With `CCC(=O)N[C@@H](C(=O)N1CCN(C)CC1)[C@@H](C)c1ccc(NC(=O)[C@@H](NC(=O)C(F)(F)c2cccc(C#N)c2)C2CCC(F)(F)CC2)c(F)c1` [Compound 263], the IC50 is less than 10 nM.

Consider `CCn1nccc1C(=O)N[C@H](C(=O)Nc1ccc([C@H](C)[C@@H](NC(=O)c2cccs2)C(=O)N2CCN(C)CC2)cc1F)C1CCCCC1` [Compound 304], for which the IC50 was 10 to 100 nM.

As for `CCC(=O)N[C@H](Cc1ccc(NC(=O)[C@@H](NC(=O)c2cncn2CC)C2CCCCC2)c(F)c1)C(=O)N1CCN(C)CC1` [Compound 761], the IC50 is 100 to 10000 nM. Same read-out and setting: as for `[2H]C1([2H])N(C)C([2H])([2H])C([2H])([2H])N(C(=O)[C@H](NC(=O)CC)[C@@H](C)c2ccc(NC(=O)[C@@H](NC(=O)c3ccnn3CC)[C@H]3CC[C@H](C)CC3)c(F)c2)C1([2H])[2H]` [Compound 573], the figure is less than 10 nM; as for `CCn1nccc1C(=O)N[C@H](C(=O)Nc1ccc([C@H](C)[C@@H](NC(=O)c2cnns2)C(=O)N2CCN(C)CC2)cc1F)[C@H]1CC[C@H](C)CC1` [Compound 388], 10 to 100 nM. For the molecule `CCn1nccc1C(=O)N[C@H](C(=O)Nc1ccc([C@H](C)[C@@H](NC(=O)c2cnns2)C(=O)N2CCNC3(CC3)C2)cc1F)[C@H]1CC[C@H](C)CC1` [Compound 438], the IC50 is 10 to 100 nM. The same measure, in the same setting: as for `CCC(=O)N[C@@H](C(=O)N1CCN(C)CC1)[C@@H](C)c1ccc(NC(=O)[C@@H](NC(=O)c2ccnn2C(C)C)C2CCCCC2)c(F)c1` [Compound 256], the figure is 10 to 100 nM; as for `CCC(=O)N[C@@H](C(=O)N1CCN(C)CC1)[C@@H](C)c1ccc(NC(=O)C(NC(=O)c2nonc2CC)C(C)c2ccccc2Cl)c(F)c1` (stereo partly drawn) [Compound 521], 100 to 10000 nM.

As to `CCc1nonc1C(=O)N[C@H](C(=O)Nc1ccc([C@H](C)[C@@H](NC(=O)[C@H](C)OC)C(=O)N2CCN(C)CC2)cc1F)[C@H]1CC[C@H](C)CC1` [Compound 497], the IC50 is less than 10 nM. Turning to `CCn1nccc1C(=O)N[C@H](C(=O)Nc1ccc([C@H](C)C(NC(=O)C(C)F)C(=O)N2CCN(C)[C@H](C)C2)cc1F)[C@H]1CC[C@H](C)CC1` (single isomer, unassigned) [Compound 596], the IC50 was 10 to 100 nM. For `CCC(=O)N[C@H](Cc1ccc(NC(=O)[C@@H](NC(=O)c2ccnn2CC)C2CCCCC2)c(F)c1)C(=O)N1CCN2CCCC[C@@H]2C1` [Compound 697], the “IL-17A/A inhibition (pIC50)” value is “X2a (compounds were evaluated up to 1 uM and did not inhibit activity by >80%, however they showed some activity at 1 uM (less than 80% and more than 20%))”. With `CCC(=O)N[C@@H](C(=O)NCC1(C)CC1)[C@@H](C)c1ccc(NC(=O)[C@@H](NC(=O)c2ccnn2CC)[C@H]2CC[C@H](C)CC2)c(F)c1` [Compound 346], the IC50 is 10 to 100 nM. On to `CCC(=O)N[C@@H](C(=O)N1CCN(C)CC1)[C@@H](C)c1ccc(NC(=O)C(NC(=O)c2ccnn2CC)C2CCc3cc(F)cc(F)c32)c(F)c1` (single isomer, unassigned) [Compound 809], for which the IC50 was less than 10 nM.

Consider `CCC(=O)N[C@@H](C(=O)N1CCC(C)CC1)[C@@H](C)c1ccc(NC(=O)[C@@H](NC(=O)c2ccnn2CC)[C@H]2CC[C@H](C)CC2)c(F)c1` [Compound 370], for which the IC50 was 10 to 100 nM. `CCC(=O)N[C@@H](C(=O)N1CCN(C)CC1)[C@@H](C)c1ccc(NC(=O)[C@@H](NC(=O)c2csc3cncnc23)C2CCCCC2)c(F)c1` [Compound 754]: the “IL-17A/A inhibition (pIC50)” value is “X2b (compounds were evaluated up to 1 uM and inhibited activity at 1 uM by less than 20%)”. As to `CCC(=O)N[C@@H](C(=O)N1CCC(C)(O)CC1)[C@@H](C)c1ccc(NC(=O)[C@@H](NC(=O)C(F)(F)c2nc(C)cs2)[C@H]2CC[C@H](C)CC2)c(F)c1` [Compound 376], the IC50 was 10 to 100 nM. `CCn1nccc1C(=O)N[C@H](C(=O)Nc1ccc([C@H](C)[C@@H](NC(=O)OC)C(=O)N2CCN(C)CC2)cc1F)[C@H]1CC[C@H](C)CC1` [Compound 483]: the IC50 was 10 to 100 nM. On the same count and under the same terms, as for `CCC(=O)N[C@@H](C(=O)N1CCN(C)CC1)[C@@H](CC)c1ccc(NC(=O)[C@@H](NC(=O)c2ccnn2CC)C2CCCCCC2)cc1` [Compound 319], the figure is 10 to 100 nM.

With `CCC(=O)N[C@@H](C(=O)N1CCN(C)CC1)[C@@H](C)c1ccc(NC(=O)[C@@H](NC(=O)c2ccnn2C(C)C)C2CCCCCC2)cc1` [Compound 232], the IC50 is 10 to 100 nM. On to `CCC(=O)N[C@H](Cc1ccc(NC(=O)[C@@H](NC(=O)c2ccnn2CC)C2CCCCC2)cc1Cl)C(=O)N1CCN(C)CC1` [Compound 691], for which the IC50 was 100 to 10000 nM. Turning to `CCn1nccc1C(=O)N[C@H](C(=O)Nc1ccc([C@H](C)[C@@H](NC(=O)c2cc(C)no2)C(=O)N2CCN(C)CC2)cc1F)C1CCCCC1` [Compound 656], the IC50 is 100 to 10000 nM. Same read-out and setting: as for `CCC(=O)N[C@@H](C(=O)N1CCN(C)CC1)[C@@H](C)c1ccc(NC(=O)[C@@H](NC(=O)c2cccn2C(C)C)C2CCCCCC2)c(F)c1` [Compound 274], the figure is less than 10 nM; as for `CCC(=O)N[C@@H](C(=O)N1CCN(C)C[C@@H]1C)[C@@H](C)c1ccc(NC(=O)[C@@H](NC(=O)c2ccnn2CC)[C@H]2CC[C@H](C)CC2)c(F)c1` [Compound 429], less than 10 nM. Still for that read-out and setting: as for `CCc1nonc1C(=O)N[C@H](C(=O)Nc1ccc([C@H](C)C(NC(=O)C(F)C2CC2)C(=O)N2CCN(C)[C@H](C)C2)cc1F)[C@H]1CC[C@H](C)CC1` (single isomer, unassigned) [Compound 600], the figure is less than 10 nM; as for `CCC(=O)N[C@@H](C(=O)N1CCN(C)CC1)[C@@H](C)c1ccc(NC(=O)[C@@H](NC(=O)c2ccc(CNC(=O)COCC(=O)O)s2)C2CCCCC2)c(F)c1` [Compound 767], 100 to 10000 nM. With `CCC(=O)N[C@@H](C(=O)N1CCN(C)CC1)[C@@H](C)c1ccc(NC(=O)C(NC(=O)c2ccnn2CC)C2CCc3ccccc32)c(F)c1` (single isomer, unassigned) [Compound 753], the “IL-17A/A inhibition (pIC50)” value is “X2b (compounds were evaluated up to 1 uM and inhibited activity at 1 uM by less than 20%)”. For the molecule `CCC(=O)N[C@@H](C(=O)N1CCN(C)CC1)[C@@H](C)c1ccc(NC(=O)[C@@H](NC(=O)c2csc3ccccc23)C2CCCCC2)c(F)c1` [Compound 248], the IC50 was 10 to 100 nM. For the molecule `CCC(=O)N[C@@H](C(=O)N1CCN(C)CC1)[C@@H](C)c1ccc(NC(=O)[C@@H](NC(=O)C(F)(F)c2ccc(OC)nc2)[C@H]2CC[C@H](C(F)(F)F)CC2)c(F)c1` [Compound 285], the IC50 is 10 to 100 nM.

As to `CCC(=O)N[C@@H](C(=O)N1CCN(C)CC1)[C@@H](C)c1ccc(NC(=O)[C@@H](NC(=O)c2nonc2C)[C@H]2CC[C@H](C)CC2)c(F)c1` [Compound 582], the IC50 was 10 to 100 nM. Still for that read-out and setting: the same measure for `[2H]C([2H])([2H])N1CCN(C(=O)[C@H](NC(=O)CC)[C@@H](C)c2ccc(NC(=O)[C@@H](NC(=O)c3ccnn3CC)[C@H]3CC[C@H](C)CC3)c(F)c2)CC1` [Compound 539]: less than 10 nM; for `C[C@@H](c1ccc(NC(=O)[C@@H](NC(=O)C(F)(F)c2cncc(C#N)c2)C2CCCCCC2)c(F)c1)[C@@H](NC(=O)c1cnns1)C(=O)N1CCN(C)CC1` [Compound 335]: less than 10 nM. As to `CCC(=O)N[C@H](Cc1ccc(NC(=O)[C@H](CC2CCCCC2)NC(=O)c2ccnn2CC)c(F)c1)C(=O)N1CCN(C)CC1` [Compound 730], the “IL-17A/A inhibition (pIC50)” value was “X2b (compounds were evaluated up to 1 uM and inhibited activity at 1 uM by less than 20%)”.
